Experiments:
[1] = system: plasma proteins; assay: Binding of biotinylated NNKC9/41 to immobilized plasma proteins; conditions: Fig 2B, as summarised
Protocol: (§1) Figure 2 NNKC9/41 interacts with the NTR of pro-FSAP: (A) To determine peptide binding to pro-FSAP, wells were coated with 2 μg/mL pro-FSAP and biotinylated NNKC9/41 and NNK11/189 and their respective scrambled controls were added in different concentration (0–5 μM). Peroxidase-labeled streptavidin was used to detect peptide binding. (B) Same procedure as in (A) except that different proteins were immobilized and biotinylated NNKC9/41 (0–30 μM) was added and its binding was measured. (C) Schematic structure of pro-FSAP with the heavy chain consisting of an NTR, three EGF domains, and a kringle domain, followed by the light chain harboring the serine protease domain (SPD). The binding domains of antibodies used in this study are indicated. (D) Recombinant complete heavy chain (heavy) and truncated heavy chain variants ΔNTR, ΔEGF1, ΔEGF2, ΔEGF3, and ΔKringle were expressed in bacteria and analyzed by sodium dodecyl sulfate poly(acrylamide) gel electrophoresis (SDS-PAGE) followed by Coomassie staining. […] Biotinylated NNKC9/41 or the scrambled control peptide was added at 1 μM and peptide binding was measured with peroxidase-linked streptavidin. […]
(§2) Wells were coated with anti-FSAP polyclonal antibodies (5 μg/mL). […] Subsequently, the plates were washed, and bound peptides were detected with peroxidase-coupled streptavidin. […]

[2] = system: FSAP heavy chain; assay: Binding of biotinylated peptides to captured recombinant FSAP heavy chain; set-up: species or system human; conditions: peptide 1 μM; triplicate wells (Fig 2E)
Protocol: as §1, §2

[3] = system: Factor XIIa; assay: Specificity: factor XIIa; format: biochemical; conditions: Factor XIIa 20 nM; peptide 0-50 μM; CS31 (Fig S7)
Protocol: Fig S7. Specificity of NNKC9/41 towards other pro-enzymes: Zymogens and their respective active enzymes were incubated with NNKC9/41 or Ser-Ser linear peptide (0-50 μM) and the enzyme activity was monitored using respective chromogenic substrates. Activity of Factor XII(100 nM) and Factor XIIa (20 nM) was measured with the substrate CS31 (1000 µM). Pro-thrombin (100 nM) and thrombin (20 nM) […]
(§3) Bend, IN, USA) except plasminogen and FSAP, which were isolated in house; and pro-uPA was from Grünenthal (Stolberg, Germany). All chromogenic substrates were from Hyphen Biomed (Neuville Sur Oise, France). Experiments were carried out in TBS with Tween-20 (0.1 % wt/ vol) BSA (0.3% wt/vol) and CaCl2 (2 mM). Absorbance at 405 nm was measured over time and the enzyme activity is depicted was measured in duplicates (mean + or -range) and similar results were obtained in 3

[4] = target: T1, pro-FSAP in human plasma (Homo sapiens, UniProt Q14520); assay: Western blotting of activated plasma, FSAP-inhibitor complex; format: biochemical; conditions: hirudin and citrate plasma 1:2, 1 h at 37 °C, non-reducing; NNKC9/41 25 µM (Fig S6)
T1 construct: from tissue; host or cells: human hirudin or citrate plasma from healthy donors, diluted 1:12
Protocol: Hirudin plasma Citrate plasma
Fig S6. Western blotting of activated plasma: Hirudin or citrate plasma (1:2) dilution was incubated for 1 h at 37 °C with test substances and the samples were analyzed by Western blotting with an anti-FSAP polyclonal antibody under non-reducing conditions. Top panel: NNKC9/41 and Ser-Ser cyclic peptides (25 µM) were compared to histones (50 µg/ml). Lower panel: 100, 50, 25 and 12.5 µM NNKC9/41 and Ser-Ser cyclicpeptide were compared. Arrows on the right indicate the presence of FSAP and FSAP-inhibitor complexes and MW markers are indicated on the left.Results are representative of 3 independent experiments. […]

[5] = system: factor X; assay: Specificity towards pro-enzymes: factor X; format: biochemical; conditions: Factor X 50 nM; peptide 0-50 μM; S-2765 (Fig S7)
Protocol: Fig S7. […]
as §3

[6] = system: light chain/serine protease domain (SPD); assay: Binding of biotinylated peptides to captured recombinant FSAP light chain/SPD; set-up: species or system human; conditions: peptide 1 μM; triplicate wells (Fig 2E)
Protocol: as §1, §2

[7] = system: Factor Xa; assay: Specificity: factor Xa; format: biochemical; conditions: Factor Xa 20 nM; peptide 0-50 μM; S-2765 (Fig S7)
Protocol: Fig S7. […]
as §3

T1 sequence (Q14520 24-560): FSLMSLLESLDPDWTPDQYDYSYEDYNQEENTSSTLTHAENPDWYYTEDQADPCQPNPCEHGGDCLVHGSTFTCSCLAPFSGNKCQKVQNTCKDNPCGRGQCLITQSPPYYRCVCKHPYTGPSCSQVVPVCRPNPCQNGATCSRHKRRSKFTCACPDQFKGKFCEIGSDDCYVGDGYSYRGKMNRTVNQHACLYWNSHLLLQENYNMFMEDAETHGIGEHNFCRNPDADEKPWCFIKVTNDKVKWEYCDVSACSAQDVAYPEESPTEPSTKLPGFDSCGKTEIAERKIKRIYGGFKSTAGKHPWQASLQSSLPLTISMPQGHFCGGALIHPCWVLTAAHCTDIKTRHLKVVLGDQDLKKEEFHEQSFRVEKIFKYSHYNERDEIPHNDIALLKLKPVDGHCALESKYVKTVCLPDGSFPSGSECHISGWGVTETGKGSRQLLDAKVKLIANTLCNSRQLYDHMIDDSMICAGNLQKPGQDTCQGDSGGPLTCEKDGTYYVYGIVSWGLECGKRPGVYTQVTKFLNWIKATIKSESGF

Question: With CRGAMWMYKRC [NNKC9/41] as the sequence, how does the “binding to other plasma proteins” value [1] read?
Answer: The value was “did not bind to any other plasma proteins tested, except FSAP”.

Question: What about the “peptide binding to heavy chain” value [2] of the same sequence?
Answer: Its value is “high binding”.

Question: What about the effect on activity [3] of the same sequence?
Answer: The effect on activity was “did not influence the activity”.

Question: What about the FSAP-inhibitor complex band [4] of the same sequence?
Answer: Its FSAP-inhibitor complex band is “emergence of an FSAP-inhibitor complex band”.

Question: What about the effect on activity [5] of the same sequence?
Answer: The effect on activity was “did not influence the activity”.

Question: What about the “peptide binding to light chain/SPD” value [6] of the same sequence?
Answer: The value was “very low binding”.

Question: And the effect on activity [7]?
Answer: Its effect on activity is “did not influence the activity”.

Source: article PMC9486805, “Identification of a Phage Display-Derived Peptide Interacting with the N-Terminal Region of Factor VII Activating Protease (FSAP) Enables Characterization of Zymogen Activation” (ACS Chemical Biology, 2022)
